Measurements taken from ChEMBL document CHEMBL3044541, “Control of crown rot-causing fungal pathogens of banana by inorganic salts and a surfactant” (Crop Prot, 2007).
Calls of active or inactive are those of the source. The rule behind the calls is not given here.

Tests used:
[1] = tested on: Lasiodiplodia theobromae; assay: Growth inhibition of Lasiodiplodia theobromae assessed as inhibition of mycelial growth up to 160 g/l incubated for 15 min followed by compound washout measured after 7 days in absence of surfactant APSA 80; assay type: functional, organism-based
[2] = tested on: Fusarium verticillioides; assay: Growth inhibition of Fusarium verticillioides assessed as inhibition of mycelial growth up to 160 g/l incubated for 15 min followed by compound washout measured after 7 days in presence of surfactant APSA 80; assay type: functional, organism-based
[3] = tested on: Colletotrichum musae; assay: Antifungal activity against Colletotrichum musae assessed as inhibition of conidium germination at 5 g/l incubated for 15 min followed by compound washout measured after 7 days by microscopic analysis in presence of surfactant APSA 80; assay type: functional, organism-based
[4] = tested on: Lasiodiplodia theobromae; assay: Antifungal activity against Lasiodiplodia theobromae assessed as inhibition of conidium germination at 5 g/l incubated for 15 min followed by compound washout measured after 7 days by microscopic analysis in presence of surfactant APSA 80; assay type: functional, organism-based
[5] = tested on: Colletotrichum musae; assay: Growth inhibition of Colletotrichum musae assessed as concentration required for inhibition of mycelial growth incubated for 15 min followed by compound washout measured after 7 days in presence of surfactant APSA 80; assay type: functional
[6] = tested on: Colletotrichum musae; assay: Antifungal activity against Colletotrichum musae assessed as inhibition of conidium germination at 5 g/l incubated for 15 min followed by compound washout measured after 2 days by microscopic analysis in absence of surfactant APSA 80; assay type: functional, organism-based
[7] = tested on: Lasiodiplodia theobromae; assay: Antifungal activity against Lasiodiplodia theobromae assessed as inhibition of conidium germination at 5 g/l incubated for 15 min followed by compound washout measured after 2 days by microscopic analysis in absence of surfactant APSA 80; assay type: functional, organism-based
[8] = tested on: Thielaviopsis paradoxa; assay: Growth inhibition of Ceratocystis paradoxa assessed as inhibition of mycelial growth up to 160 g/l incubated for 15 min followed by compound washout measured after 7 days in absence of surfactant APSA 80; assay type: functional, organism-based
[9] = tested on: Thielaviopsis paradoxa; assay: Antifungal activity against Ceratocystis paradoxa assessed as inhibition of conidium germination at 5 g/l incubated for 15 min followed by compound washout measured after 2 days by microscopic analysis in absence of surfactant APSA 80; assay type: functional, organism-based
[10] = tested on: Thielaviopsis paradoxa; assay: Antifungal activity against Ceratocystis paradoxa assessed as inhibition of conidium germination at 5 g/l incubated for 15 min followed by compound washout measured after 7 days by microscopic analysis in presence of surfactant APSA 80; assay type: functional, organism-based
[11] = tested on: Fusarium verticillioides; assay: Antifungal activity against Fusarium verticillioides assessed as inhibition of conidium germination at 5 g/l incubated for 15 min followed by compound washout measured after 7 days by microscopic analysis in presence of surfactant APSA 80; assay type: functional, organism-based
[12] = tested on: Fusarium verticillioides; assay: Antifungal activity against Fusarium verticillioides assessed as inhibition of conidium germination at 5 g/l incubated for 15 min followed by compound washout measured after 2 days by microscopic analysis in absence of surfactant APSA 80; assay type: functional, organism-based
[13] = tested on: Lasiodiplodia theobromae; assay: Growth inhibition of Lasiodiplodia theobromae assessed as concentration required for inhibition of mycelial growth incubated for 15 min followed by compound washout measured after 7 days in presence of surfactant APSA 80; assay type: functional
[14] = tested on: Fusarium verticillioides; assay: Antifungal activity against Fusarium verticillioides assessed as inhibition of conidium germination at 6 g/l incubated for 15 min followed by compound washout measured after 7 days by microscopic analysis in presence of surfactant APSA 80; assay type: functional, organism-based
[15] = tested on: Lasiodiplodia theobromae; assay: Growth inhibition of Lasiodiplodia theobromae assessed as inhibition of mycelial growth up to 160 g/l incubated for 15 min followed by compound washout measured after 7 days in presence of surfactant APSA 80; assay type: functional, organism-based
[16] = tested on: Lasiodiplodia theobromae; assay: Antifungal activity against Lasiodiplodia theobromae assessed as inhibition of conidium germination at 6 g/l incubated for 15 min followed by compound washout measured after 7 days by microscopic analysis in presence of surfactant APSA 80; assay type: functional, organism-based
[17] = tested on: Colletotrichum musae; assay: Antifungal activity against Colletotrichum musae assessed as inhibition of conidium germination at 6 g/l incubated for 15 min followed by compound washout measured after 2 days by microscopic analysis in absence of surfactant APSA 80; assay type: functional, organism-based
[18] = tested on: Thielaviopsis paradoxa; assay: Antifungal activity against Ceratocystis paradoxa assessed as inhibition of conidium germination at 6 g/l incubated for 15 min followed by compound washout measured after 7 days by microscopic analysis in presence of surfactant APSA 80; assay type: functional, organism-based
[19] = tested on: Thielaviopsis paradoxa; assay: Antifungal activity against Ceratocystis paradoxa assessed as inhibition of conidium germination at 6 g/l incubated for 15 min followed by compound washout measured after 2 days by microscopic analysis in absence of surfactant APSA 80; assay type: functional, organism-based
[20] = tested on: Colletotrichum musae; assay: Antifungal activity against Colletotrichum musae assessed as inhibition of conidium germination at 6 g/l incubated for 15 min followed by compound washout measured after 7 days by microscopic analysis in presence of surfactant APSA 80; assay type: functional, organism-based
[21] = tested on: Colletotrichum musae; assay: Growth inhibition of Colletotrichum musae assessed as inhibition of mycelial growth up to 160 g/l incubated for 15 min followed by compound washout measured after 7 days in presence of surfactant APSA 80; assay type: functional, organism-based
[22] = tested on: Fusarium verticillioides; assay: Antifungal activity against Fusarium verticillioides assessed as inhibition of conidium germination at 6 g/l incubated for 15 min followed by compound washout measured after 2 days by microscopic analysis in absence of surfactant APSA 80; assay type: functional, organism-based
[23] = tested on: Lasiodiplodia theobromae; assay: Antifungal activity against Lasiodiplodia theobromae assessed as inhibition of conidium germination at 6 g/l incubated for 15 min followed by compound washout measured after 2 days by microscopic analysis in absence of surfactant APSA 80; assay type: functional, organism-based
[24] = tested on: Fusarium verticillioides; assay: Growth inhibition of Fusarium verticillioides assessed as concentration required for inhibition of mycelial growth incubated for 15 min followed by compound washout measured after 7 days in absence of surfactant APSA 80; assay type: functional
[25] = tested on: Lasiodiplodia theobromae; assay: Growth inhibition of Lasiodiplodia theobromae assessed as concentration required for inhibition of mycelial growth incubated for 15 min followed by compound washout measured after 7 days in absence of surfactant APSA 80; assay type: functional
[26] = tested on: Colletotrichum musae; assay: Growth inhibition of Colletotrichum musae assessed as concentration required for inhibition of mycelial growth incubated for 15 min followed by compound washout measured after 7 days in absence of surfactant APSA 80; assay type: functional

`[Ca+2].[Cl-].[Cl-]` [CALCIUM CHLORIDE] was tested, and the Activity [1] was “inactive”, the Activity [2] was “inactive” and the inhibition [3] was “Active”. The inhibition [4] was “Active”, the Activity [5] was 140 g/L and the inhibition [6] was “Active”. The inhibition [7] was “Active”, the Activity [8] was “inactive” and the inhibition [9] was “Active”. The inhibition [10] was “Active”, the inhibition [11] was “Active” and the inhibition [12] was “Active”. The Activity [13] was 100 g/L.
In the case of `[Cl-].[Na+]` [SODIUM CHLORIDE], the inhibition [14] is reported as “Active”, the Activity [1] is reported as “inactive” and the Activity [15] is reported as “inactive”. The Activity [2] was “inactive”, the inhibition [16] was “Active” and the inhibition [17] was “Active”. For the same molecule, the inhibition [18] was “Active”, the inhibition [19] was “Active” and the inhibition [20] was “Active”. For the same molecule, the Activity [8] was “inactive”, the Activity [21] was “inactive” and the inhibition [22] was “Active”. For the same molecule, the inhibition [23] was “Active”.
For `[Na+].[O-]Cl` [SODIUM HYPOCHLORITE], the inhibition [3] was “Active”, the Activity [24] was 70 g/L and the inhibition [4] was “Active”. For the same molecule, the Activity [25] was 20 g/L, the Activity [26] was 50 g/L and the inhibition [6] was “Active”. For the same molecule, the inhibition [7] was “Active”, the inhibition [9] was “Active” and the inhibition [10] was “Active”. For the same molecule, the inhibition [11] was “Active”, the inhibition [12] was “Active” and the Activity [13] was 20 g/L.
